In brackets after ≈: the same amount, converted by molar mass.
What was measured:
Enterococcus faecalis [1] = experiment: Antibacterial activity against Enterococcus faecalis ATCC 29212 assessed as inhibition of bacterial growth at 100 ug/mL incubated at 37 degC for 24 hrs by broth microdilution assay; format: functional; conditions: ATCC 29212, 24 h
Escherichia coli [2] = experiment: Antibacterial activity against Escherichia coli ATCC 25922 assessed as inhibition of bacterial growth at 100 ug/mL incubated at 37 degC for 24 hrs by broth microdilution assay; format: functional; conditions: ATCC 25922, 24 h
Staphylococcus aureus [3] = experiment: Antibacterial activity against Staphylococcus aureus ATCC 25923 assessed as inhibition of bacterial growth at 100 ug/mL incubated at 37 degC for 24 hrs by broth microdilution assay; format: functional; conditions: ATCC 25923, 24 h
Staphylococcus aureus [4] = experiment: Antibacterial activity against Staphylococcus aureus ATCC 25923 assessed as inhibition of bacterial growth incubated at 37 degC for 24 hrs by broth microdilution assay; format: functional; conditions: ATCC 25923, 24 h
Escherichia coli [5] = experiment: microbe, parasite or virus in culture; conditions: ATCC 25922, 24 h
Description: Antibacterial activity against Escherichia coli ATCC 25922 assessed as inhibition of bacterial growth incubated at 37 degC for 24 hrs by broth microdilution assay

Enterococcus faecalis [6] = experiment: microbe, parasite or virus in culture; conditions: ATCC 29212, 24 h
Description: Antibacterial activity against Enterococcus faecalis ATCC 29212 assessed as inhibition of bacterial growth incubated at 37 degC for 24 hrs by broth microdilution assay

SMILES | inhibition at 100 µg/mL (Enterococcus faecalis [1]) [%] | inhibition at 100 µg/mL (Escherichia coli [2]) [%] | inhibition at 100 µg/mL (Staphylococcus aureus [3]) [%] | MIC90 (Staphylococcus aureus [4]) [µg/mL] | MIC90 (Escherichia coli [5]) [µg/mL] | MIC90 (Enterococcus faecalis [6]) [µg/mL]
CCCCCCCCCCCC1=C(C(C)=O)C(=O)C[C@@H](O)C1 | 23 | 29 | 100 | 25 (≈ 81 µM) | – | –
CCCCCCCCCCCc1cccc(O)c1C(C)=O | -1 | -3.3 | 65 | – | – | –
CCCCCCCCCCCc1cc(O)cc(O)c1C(C)=O | -9.8 | -1 | 17 | – | – | –
CCCCCCCCCCC[C@H](O)C[C@H]1CC(=O)C=C(C)O1 | 23 | 27 | -8.5 | – | – | –
CCCCCCCCCCCC1CC=C/C(=C\C(C)=O)O1 (stereo not given) | 21 | 15 | -95 | – | – | –
CCCCCCCCCCCC1CC=C/C(=C/C(C)=O)O1 (stereo not given) | 19 | 25 | -57 | – | – | –
CCCCC/C=C\C/C=C\CCCCCCCC(=O)/C=C(/C)O | -10 | -2.4 | -17 | – | – | –
O=C(O)c1cn(C2CC2)c2cc(N3CCNCC3)c(F)cc2c1=O [CIPROFLOXACIN] | – | – | – | 0.5 (≈ 1.51 µM) | 0.016 (≈ 0.0483 µM) | 1 (≈ 3.02 µM)

From ChEMBL document CHEMBL3588777, “Acetate-Derived Metabolites from the Brown Alga Lobophora variegata” (2015)
